The results in this text go back to US9730914B2, “3,5-diaminopyrazole kinase inhibitors” (Axikin Pharmaceuticals, Inc., priority 2014, dated 2017).

pKd: −log10 of the molar value. Where only a bound is given, the exact number is not on record here.

For one experiment, the target named is T1, JAK2 (Homo sapiens, UniProt O60674).
T1 construct: made in house; host or cells: E. coli BL21-derived host (T7 phage) or HEK-293
The experiment in a line: Kinase competition binding assay (Kd, qPCR readout), JAK2. Particulars: for pKd: Kd class, JAK2, read-out: JAK2 Activity Level; for RCK:JAK2 selectivity ratio: ratio Kd (JAK2): Kd(RCK). As for the experimental part: (§1) For most assays, kinase-tagged T7 phage strains were prepared in an E. coli host derived from the BL21 strain. E. coli were grown to log-phase and infected with T7 phage and incubated with shaking at 32° C. until lysis. The lysates were centrifuged and filtered to remove cell debris. The remaining kinases were produced in HEK-293 cells and subsequently tagged with DNA for quantitative PCR (qPCR) detection.
(§2) Streptavidin-coated magnetic beads were treated with biotinylated small molecule ligands for 30 minutes at room temperature to generate affinity resins for kinase assays. The liganded beads were blocked with excess biotin and washed with blocking buffer (SeaBlock (Pierce), 1% BSA, 0.05% Tween 20, 1 mM DTT) to remove unbound ligand and to reduce nonspecific binding. Binding reactions were assembled by combining kinases, liganded affinity beads, and test compounds in 1× binding buffer (20% SeaBlock, 0.17×PBS, 0.05% Tween 20, 6 mM DTT). All reactions were performed in polystyrene 96-well plates in a final volume of 0.135 mL. The assay plates were incubated at room temperature with shaking for 1 hour and the affinity beads were washed with wash buffer (1×PBS, 0.05% Tween 20). The beads were then re-suspended in elution buffer (1×PBS, 0.05% Tween 20, 0.5 μM non-biotinylated affinity ligand) and incubated at room temperature with shaking for 30 minutes. The kinase concentration in the eluates was measured by qPCR.
(§3) An 11-point 3-fold serial dilution of each test compound was prepared in 100% DMSO at 100× final test concentration and subsequently diluted to 1× in the assay (final DMSO concentration=1%). Most Kd values were determined using a compound top concentration=30,000 nM. If the initial Kd determined was <0.5 nM, (the lowest concentration tested), the measurement was repeated with a serial dilution starting at a lower top concentration. A more detailed description of this assay may be found in Fabian, M. A. et al. Nat. Biotechnol. 2005, 23, 329-336, which is incorporated herein in its entirety.
(§4) The biological results of inhibition of the kinase domain protein of RC kinase (RCK) and JAK2 and JAK3 are summarized in Tables 2 and 3, wherein A represents a Kd of <50 nM; B represents 50 nM<Kd<100 nM; C represents 100 nM<Kd<1000 nM; and D represents a Kd>1000 nM.
Additionally, RCK:JAK2 selectivity, as measured by the ratio Kd (JAK2): Kd(RCK) is represented as follows: A represents Kd (JAK2): Kd (RCK)>100; B represents 10<Kd(JAK2): Kd (RCK)<100; C represents 1<Kd (JAK2): Kd (RCK)<10; and D represents Kd(JAK2): Kd (RCK)<1.
For orientation: Real-time PCR tracks product formation cycle by cycle.

Another experiment concerns the target T2, JAK3 (Homo sapiens, UniProt P52333).
T2 construct: made in house; host or cells: E. coli BL21-derived host (T7 phage) or HEK-293
Description: Kinase competition binding assay (Kd, qPCR readout), JAK3. Particulars: for pKd: Kd class, JAK3, read-out: JAK3 Activity Level; for RCK:JAK3 selectivity ratio: ratio Kd (JAK3): Kd (RCK). On the procedure:
as §1, §2, §3, §4
Similarly, RCK:JAK3 selectivity, as measured by the ratio Kd (JAK3): Kd (RCK) is represented as follows: A represents Kd (JAK3): Kd (RCK)>100; B represents 10<Kd (JAK3): Kd (RCK)<100; C represents 1<Kd (JAK3): Kd (RCK)<10; and D represents Kd (JAK3): Kd(RCK)<1.

The target of experiment [1] is T3, kinase domain protein of RC kinase (RCK) (Homo sapiens, UniProt Q56UN5).
T3 construct: made in house; host or cells: E. coli BL21-derived host (T7 phage) or HEK-293
T3 sequence (Q56UN5 1061-1324 limits assumed): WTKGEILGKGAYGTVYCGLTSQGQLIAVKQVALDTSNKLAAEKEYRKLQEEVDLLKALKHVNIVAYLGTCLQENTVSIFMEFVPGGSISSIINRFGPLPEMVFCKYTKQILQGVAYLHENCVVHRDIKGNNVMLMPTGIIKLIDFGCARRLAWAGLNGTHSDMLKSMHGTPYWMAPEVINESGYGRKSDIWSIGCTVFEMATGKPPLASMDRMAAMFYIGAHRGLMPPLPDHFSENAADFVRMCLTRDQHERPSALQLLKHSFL
Description: Kinase competition binding assay (Kd, qPCR readout), RC kinase. Particulars: Kd class, read-out: RCK Activity Level. As for the experimental part:
as §1, §2, §3, §4

T1 sequence (O60674 840-1132 limits assumed): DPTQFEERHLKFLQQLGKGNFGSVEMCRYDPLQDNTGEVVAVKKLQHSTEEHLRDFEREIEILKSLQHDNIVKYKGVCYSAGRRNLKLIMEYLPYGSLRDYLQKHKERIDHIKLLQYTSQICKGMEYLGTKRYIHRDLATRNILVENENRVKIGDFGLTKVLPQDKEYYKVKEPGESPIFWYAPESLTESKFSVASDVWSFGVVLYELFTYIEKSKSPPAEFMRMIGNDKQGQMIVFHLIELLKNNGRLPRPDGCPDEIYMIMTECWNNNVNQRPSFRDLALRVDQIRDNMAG
T2 sequence (P52333 811-1124 limits assumed): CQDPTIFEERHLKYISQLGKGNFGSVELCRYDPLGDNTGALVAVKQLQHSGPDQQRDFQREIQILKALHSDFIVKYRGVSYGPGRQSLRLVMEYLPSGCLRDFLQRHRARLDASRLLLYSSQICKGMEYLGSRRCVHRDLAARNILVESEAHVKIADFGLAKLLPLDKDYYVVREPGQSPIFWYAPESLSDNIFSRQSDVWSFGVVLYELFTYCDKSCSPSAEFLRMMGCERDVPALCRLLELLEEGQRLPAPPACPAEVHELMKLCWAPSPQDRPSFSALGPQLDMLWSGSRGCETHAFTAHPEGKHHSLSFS

As for `Cc1cc(Nc2n[nH]c(NCc3cc(C)c(O)c(C)c3)c2C(N)=O)ccc1N1CCN(C)CC1` [Compound 29, 5-((4-hydroxy-3,5-dimethylbenzyl)amino)-3-((3-methyl-4-(4-methylpiperazin-1-yl)phenyl)amino)-1H-pyrazole-4-carboxamide], at JAK2, the pKd was 6.00 to 7.00 and the “RCK:JAK2 selectivity ratio” value is on record as “B (B represents 10<Kd(JAK2): Kd (RCK)<100)”. In addition, on JAK3, the pKd is less than 6.00 and the “RCK:JAK3 selectivity ratio” value is reported as “B (B represents 10<Kd (JAK3): Kd (RCK)<100)”. Besides, the pKd in experiment [1] was more than 7.30.

On to `Cc1cc(Nc2n[nH]c(NCc3cc(C)c(O)c(C)c3)c2C(N)=O)ccc1N1CCCCC1` [Compound 30, 5-((4-hydroxy-3,5-dimethylbenzyl)amino)-3-((3-methyl-4-(piperidin-1-yl)phenyl)amino)-1H-pyrazole-4-carboxamide], for which, on JAK2, the pKd was less than 6.00 and the “RCK:JAK2 selectivity ratio” value is given as “B (B represents 10<Kd(JAK2): Kd (RCK)<100)”. On JAK3, the pKd is less than 6.00 and the “RCK:JAK3 selectivity ratio” value is reported as “B (B represents 10<Kd (JAK3): Kd (RCK)<100)”. The pKd in experiment [1] was 7.00 to 7.30.

As to `Cc1cc(CNc2[nH]nc(Nc3ccc(N4CCN(Cc5ccccc5)CC4)cc3)c2C(N)=O)cc(C)c1O` [Compound 31, 3-((4-(4-benzylpiperazin-1-yl)phenyl)amino)-5-((4-hydroxy-3,5-dimethylbenzyl)amino)-1H-pyrazole-4-carboxamide], at JAK2, the pKd was less than 6.00 and the “RCK:JAK2 selectivity ratio” value is given as “B (B represents 10<Kd(JAK2): Kd (RCK)<100)”. Besides, on JAK3, the pKd is less than 6.00 and the “RCK:JAK3 selectivity ratio” value was “B (B represents 10<Kd (JAK3): Kd (RCK)<100)”. The pKd in experiment [1] was more than 7.30.

As to `Cc1cc(CNc2[nH]nc(Nc3ccc(N4CCS(=O)(=O)CC4)cc3)c2C(N)=O)cc(C)c1O` [Compound 32, 3-((4-(1,1-dioxidothiomorpholino)phenyl)amino)-5-((4-hydroxy-3,5-dimethylbenzyl)amino)-1H-pyrazole-4-carboxamide], on JAK2, the pKd was 6.00 to 7.00 and the “RCK:JAK2 selectivity ratio” value is on record as “C (C represents 1<Kd (JAK2): Kd (RCK)<10)”. Moreover, at JAK3, the pKd was 6.00 to 7.00 and the “RCK:JAK3 selectivity ratio” value is recorded as “B (B represents 10<Kd (JAK3): Kd (RCK)<100)”. Also, the pKd in experiment [1] was more than 7.30.

For `Cc1cc(CNc2[nH]nc(Nc3ccc(N4CCCCC4)cn3)c2C(N)=O)cc(C)c1O` [Compound 33, 5-((4-hydroxy-3,5-dimethylbenzyl)amino)-3-((5-(piperidin-1-yl)pyridin-2-yl)amino)-1H-pyrazole-4-carboxamide], the pKd on JAK2 was 6.00 to 7.00; at JAK3 it was less than 6.00; in experiment [1] it was 7.00 to 7.30. Also, the “RCK:JAK2 selectivity ratio” value on JAK2 is given as “C (C represents 1<Kd (JAK2): Kd (RCK)<10)”. Also, the “RCK:JAK3 selectivity ratio” value at JAK3 is on record as “B (B represents 10<Kd (JAK3): Kd (RCK)<100)”.

Regarding `Cc1cc(CNc2[nH]nc(Nc3ccc(N4CCC(Cl)CC4)cc3)c2C(N)=O)cc(C)c1O` [Compound 34, 3-((4-(4-chloropiperidin-1-yl)phenyl)amino)-5-((4-hydroxy-3,5-dimethylbenzyl)amino)-1H-pyrazole-4-carboxamide], on JAK2, the pKd is less than 6.00 and the “RCK:JAK2 selectivity ratio” value was “B (B represents 10<Kd(JAK2): Kd (RCK)<100)”. For the same compound, on JAK3, the pKd was less than 6.00 and the “RCK:JAK3 selectivity ratio” value is “B (B represents 10<Kd (JAK3): Kd (RCK)<100)”. Further, the pKd in experiment [1] is 7.00 to 7.30.

As to `Cc1cc(CNc2[nH]nc(Nc3ccc(CN4CCCC4)cc3)c2C(N)=O)cc(C)c1O` [Compound 35, 5-((4-hydroxy-3,5-dimethylbenzyl)amino)-3-((4-(pyrrolidin-1-ylmethyl)phenyl)amino)-1H-pyrazole-4-carboxamide], at JAK2, the pKd is 6.00 to 7.00 and the “RCK:JAK2 selectivity ratio” value is on record as “C (C represents 1<Kd (JAK2): Kd (RCK)<10)”. Further, at JAK3, the pKd was less than 6.00 and the “RCK:JAK3 selectivity ratio” value is “B (B represents 10<Kd (JAK3): Kd (RCK)<100)”. The pKd in experiment [1] was 7.00 to 7.30.

For the compound `Cc1cc(CNc2[nH]nc(Nc3ccc(N4CCC(N(C)C)CC4)cc3)c2C(N)=O)cc(C)c1O` [Compound 36, 3-((4-(4-(dimethylamino)piperidin-1-yl)phenyl)amino)-5-((4-hydroxy-3,5-dimethylbenzyl)amino)-1H-pyrazole-4-carboxamide], at JAK2, the pKd is 6.00 to 7.00 and the “RCK:JAK2 selectivity ratio” value is “B (B represents 10<Kd(JAK2): Kd (RCK)<100)”. At JAK3, the pKd is less than 6.00 and the “RCK:JAK3 selectivity ratio” value is “A (A represents Kd (JAK3): Kd (RCK)>100)”. In addition, the pKd in experiment [1] was more than 7.30.

For `Cc1cc(CNc2[nH]nc(Nc3ccc(N4CCOCC4)c(F)c3)c2C(N)=O)cc(C)c1O` [Compound 37, 3-((3-fluoro-4-morpholinophenyl)amino)-5-((4-hydroxy-3,5-dimethylbenzyl)amino)-1H-pyrazole-4-carboxamide], at JAK2, the pKd is less than 6.00 and the “RCK:JAK2 selectivity ratio” value was “B (B represents 10<Kd(JAK2): Kd (RCK)<100)”. In addition, at JAK3, the pKd is less than 6.00 and the “RCK:JAK3 selectivity ratio” value is listed as “A (A represents Kd (JAK3): Kd (RCK)>100)”. Besides, in experiment [1], the pKd was more than 7.30.

As for `Cc1cc(CNc2[nH]nc(Nc3ccc(-c4cnco4)cc3)c2C(N)=O)cc(C)c1O` [Compound 38, 5-((4-hydroxy-3,5-dimethylbenzyl)amino)-3-((4-(oxazol-5-yl)phenyl)amino)-1H-pyrazole-4-carboxamide], at JAK2, the pKd is less than 6.00 and the “RCK:JAK2 selectivity ratio” value is “A (A represents Kd (JAK2): Kd (RCK)>100)”. In addition, on JAK3, the pKd was less than 6.00 and the “RCK:JAK3 selectivity ratio” value is “A (A represents Kd (JAK3): Kd (RCK)>100)”. For the same compound, in experiment [1], the pKd is 6.00 to 7.00.

Consider `Cc1cc(CNc2[nH]nc(Nc3ccc(N4CCN(C(=O)N5CCOCC5)CC4)cc3)c2C(N)=O)cc(C)c1O` [Compound 39, 5-((4-hydroxy-3,5-dimethylbenzyl)amino)-3-((4-(4-(morpholine-4-carbonyl)piperazin-1-yl)phenyl)amino)-1H-pyrazole-4-carboxamide], for which, on JAK2, the pKd was more than 7.30 and the “RCK:JAK2 selectivity ratio” value is “B (B represents 10<Kd(JAK2): Kd (RCK)<100)”. Besides, on JAK3, the pKd is more than 7.30 and the “RCK:JAK3 selectivity ratio” value is “B (B represents 10<Kd (JAK3): Kd (RCK)<100)”. In addition, in experiment [1], the pKd is 7.00 to 7.30.

On to `CC(=O)Nc1cccc(Nc2n[nH]c(NCc3cc(C)c(O)c(C)c3)c2C(N)=O)c1` [Compound 40, 3-((3-acetamidophenyl)amino)-5-((4-hydroxy-3,5-dimethylbenzyl)amino)-1H-pyrazole-4-carboxamide], for which the pKd (at JAK2; at JAK3; in experiment [1]) was less than 6.00 throughout. The “RCK:JAK2 selectivity ratio” value on JAK2 was “C (C represents 1<Kd (JAK2): Kd (RCK)<10)”. Besides, on JAK3, the “RCK:JAK3 selectivity ratio” value is given as “C (C represents 1<Kd (JAK3): Kd (RCK)<10)”.

For `Cc1cc(CNc2[nH]nc(Nc3ccc(N4CCN(C)CC4)c(Cl)c3)c2C(N)=O)cc(C)c1O` [Compound 41, 3-((3-chloro-4-(4-methylpiperazin-1-yl)phenyl)amino)-5-((4-hydroxy-3,5-dimethylbenzyl)amino)-1H-pyrazole-4-carboxamide], the pKd at JAK2 is 6.00 to 7.00; at JAK3, less than 6.00; in experiment [1], more than 7.30. For the same compound, at JAK2, the “RCK:JAK2 selectivity ratio” value is recorded as “B (B represents 10<Kd(JAK2): Kd (RCK)<100)”. Also, the “RCK:JAK3 selectivity ratio” value at JAK3 is given as “A (A represents Kd (JAK3): Kd (RCK)>100)”.
